Source: US11644469B2, “HIF-1 and HIF-2 inhibitors” (UNIVERSITY OF SOUTHAMPTON, priority 2016, dated 2023)
Read-outs that look alike come from different tables or passages of the source. Residues, ends and D or L forms follow the SMILES beside them.

What was measured:
HIF-1α (Trx-1α, 1α PASB) [1] = experiment: Thermal shift assay, HIF-1α; assay type: binding; conditions: effective inhibitors decrease the melting temperature
Experimental: (§1) The binding of the compounds to their targets was assessed by measuring changes in the melting temperature of their target proteins HIF-1α and HIF-2α (known as a thermal shift assay) and by microscale thermophoresis (MST). The data for the thermal shift assay is summarized in FIG. 1, while the binding constants (Kd) derived from MST is shown in FIG. 3. Compounds that are effective inhibitors decrease the melting temperatures of the proteins. […] The compounds may bind to HIF 1α/2α or 1β in order to disrupt the dimerization, and PASB may be the responsible domain.
(§2) Thermal shift data of thioredoxin-tagged longer constructs and PASB domains with the identified polypeptides are shown in FIG. 1. Compounds that are effective inhibitors decrease the melting temperatures of the proteins.
(§3) Thermal denaturation of HIF proteins was performed in 20 μL reactions in triplicate using a Bio-Rad CFX Connect Real-Time System. Proteins were used at either 5 μM (Trx-1α, Trx-2α and GST-1β) or 15 μM (His-tagged PASB domains) in HIF assay buffer, with 10 mM DTT and SYPRO orange dye (Life Technologies) at a final concentration of 8× (relative to 5000× stock), and supplemented with either DMSO or compound dissolved in DMSO at the stated concentrations. The reaction plate was assembled on ice, then transferred to the pre-chilled thermal cycler, held at 10° C. for 5 min (heated lid, 105° C.), then the temperature ramped to 95° C. Fluorescence was recorded at 0.5° C. increments, holding for 5 sec at each temperature. Data were plotted using GraphPad Prism 6, and melting temperatures calculated using the first derivative method in which the peak (i.e. the steepest transition between data points) represents the point at which 50% of the protein sample is denatured. Errors are quoted as the inherent error associated with the first derivative of the data, i.e. ±0.25° C. for Tm values and ±0.5° C. for ΔTm values.

HIF-1α (Trx-1α, 1α PASB) [2] = target: T1, HIF-1α (Trx-1α, 1α PASB) (Homo sapiens, UniProt Q16665); experiment: Thermal shift assay, HIF-1α; assay type: binding; conditions: 1 mM compound
T1 construct: 238-349; made in house
Experimental: as §1, §2, §3

HIF-2α (Trx-2α, 2α PASB) [3] = target: T2, HIF-2α (Trx-2α, 2α PASB) (Homo sapiens, UniProt Q99814); experiment: Thermal shift assay, HIF-2α; assay type: binding; conditions: 1 mM compound
T2 construct: 240-350; made in house
Experimental: as §1, §2, §3

HIF-2α (Trx-2α, 2α PASB) [4] = experiment: Thermal shift assay, HIF-2α; assay type: binding; conditions: effective inhibitors decrease the melting temperature
Experimental: as §1, §2, §3

HIF-1β (GST-1β, 1β PASB) [5] = target: T3, HIF-1β (GST-1β, 1β PASB) (Homo sapiens, UniProt P27540); experiment: Thermal shift assay, HIF-1β (negative control); assay type: binding; conditions: for activity against HIF-1β in thermal shift assay: negative control protein
T3 construct: 356-474; made in house
Experimental: as §1, §2, §3

HIF-1β (GST-1β, 1β PASB) [6] = experiment: Thermal shift assay, HIF-1β (negative control); assay type: binding; conditions: 1 mM compound; GST-1β 5 μM
Experimental: as §1, §2, §3

MCF-7 cells = experiment: Cell permeability and localisation by fluorescence microscopy; assay type: cell-based; conditions: 24 hr
Experimental: FIGS. 10A-D and 10A′-D′ show cell permeability tested using fluorescently labeled-CRVIIF (SEQ ID NO 4) in MCF-7 cells.
For initial compound permeability experiments, 1.5 mL MCF-7 cells were plated on 3 cm petri dishes (200,000 cells/plate) and grown at 37° C. After 24 hr, cells were incubated with fresh media containing the stated concentrations of fluor-CRVIIF (SEQ ID NO 4) (0.5% DMSO) or 66 μM CP-61 control compound (0.66% DMSO) for a further 24 hr. Cells were washed twice with PBS and imaged live in plates. For co-localisation experiments, an 8-well Lab-Tek Chamber Slide (Nunc) was treated with collagen prior to plating 25,000 MCF-7 cells/well. After 24 hr, cells were dosed with 300 μL fresh media containing the stated concentrations of fluor-CRVIIF (SEQ ID NO 4) (0.5% DMSO) and/or 5 μg/mL FM 4-64FX Membrane Stain (Life Technologies) and incubated for a further 24 hr. Cells were washed with 2×300 μL PBS, fixed with 150 μL 10% formalin in PBS for 5-10 min, then washed again with PBS. Growth chambers were removed and nuclear staining was achieved using Vectashield Mounting Medium with DAPI (Vector Laboratories) prior to sealing the slide with a coverslip. Cells were imaged using a fluorescent microscope.

[7] = His-tagged PASB domain 15 μM, read-out: ΔTm 1α PASB
[8] = Trx-1α 5 μM, read-out: ΔTm Trx-1α
[9] = His-tagged PASB domain 15 μM, read-out: ΔTm 2α PASB
[10] = Trx-2α 5 μM, read-out: ΔTm Trx-2α
[11] = 1 mM compound, His-tagged PASB domain 15 μM

T3 sequence (P27540 356-474): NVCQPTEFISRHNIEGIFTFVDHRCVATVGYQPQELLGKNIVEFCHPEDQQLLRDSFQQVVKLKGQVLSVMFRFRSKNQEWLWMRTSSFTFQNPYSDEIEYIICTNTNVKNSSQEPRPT

Row | Molecule | activity against HIF-1α in thermal shift assay (HIF-1α (Trx-1α, 1α PASB) [1]) | ΔTm at 1000 µM (HIF-1α (Trx-1α, 1α PASB) [2]; [7]) [°C] | ΔTm at 1000 µM (HIF-1α (Trx-1α, 1α PASB) [2]; [8]) [°C] | ΔTm at 1000 µM (HIF-2α (Trx-2α, 2α PASB) [3]; [9]) [°C] | ΔTm at 1000 µM (HIF-2α (Trx-2α, 2α PASB) [3]; [10]) [°C] | activity against HIF-2α in thermal shift assay (HIF-2α (Trx-2α, 2α PASB) [4]) | ΔTm at 1000 µM (HIF-1β (GST-1β, 1β PASB) [5]; [11]) [°C] | activity against HIF-1β in thermal shift assay (HIF-1β (GST-1β, 1β PASB) [5]) | ΔTm GST-1β (HIF-1β (GST-1β, 1β PASB) [6]) [°C] | ΔTm 1α PASB (HIF-1α (Trx-1α, 1α PASB) [2]; His-tagged PASB domain 15 μM) [°C] | ΔTm Trx-1α (HIF-1α (Trx-1α, 1α PASB) [2]; Trx-1α 5 μM) [°C] | ΔTm 2α PASB (HIF-2α (Trx-2α, 2α PASB) [3]; His-tagged PASB domain 15 μM) [°C] | ΔTm Trx-2α (HIF-2α (Trx-2α, 2α PASB) [3]; Trx-2α 5 μM) [°C] | ΔTm 1β PASB (HIF-1β (GST-1β, 1β PASB) [5]; [11]) [°C] | cell permeability (MCF-7 cells)
1 | CC[C@H](C)[C@@H]1NC(=O)[C@H](CC(C)C)NC(=O)[C@H](CCCCN)NC(=O)[C@H](CS)NC(=O)[C@H](Cc2ccccc2)NC(=O)[C@H]([C@@H](C)CC)NC1=O [CKLIIF] (cyclo(CKLIIF); ring closure inferred) | show activity | -1 | -1.5 | -2.5 | -2.5 | show activity | -0.5 | not against HIF-1β |  |  |  |  |  |  | 
2 | CC[C@H](C)[C@@H]1NC(=O)[C@H](CC(C)C)NC(=O)[C@H](CC(C)C)NC(=O)[C@H](CCCNC(=N)N)NC(=O)[C@H](CS)NC(=O)[C@H](Cc2ccccc2)NC1=O [CRLLIF, cyclo-CRLLIF] (cyclo(CRLLIF); ring closure inferred) | show activity | -2 | 0.5 | -4 | -4 | show activity | -1 | not against HIF-1β |  |  |  |  |  |  | 
3 | CC[C@H](C)[C@@H]1NC(=O)[C@H](C(C)C)NC(=O)[C@H](CCCNC(=N)N)NC(=O)[C@H](CS)NC(=O)[C@H](Cc2ccccc2)NC(=O)[C@H]([C@@H](C)CC)NC1=O [CRVIIF, cyclo-CRVIIF] (cyclo(CRVIIF); ring closure inferred) | show activity | -1.5 | -1 | -2.5 | -2 | show activity | -0.5 | not against HIF-1β | −0.5 |  |  |  |  |  | 
4 | SGWEMIQRR (cyclic; listed as Homo sapiens) | only active against HIF-1α |  |  |  |  |  |  |  |  | −0.5 | −2.5 | −2.5 | −2 | −0.5 | 
5 | fluor-CRVIIF: fluorescently labelled cyclo-CRVIIF; FITC-maleimide bound to the cysteine (cyclo(C(FITC‑maleimide)RVIIF); listed as Homo sapiens) |  |  |  |  |  |  |  |  |  |  |  |  |  |  | appears to cross cell membrane
